Key:
[1] = target: T1, human KOR (Homo sapiens, UniProt P41145); assay: [3H]-diprenorphine competitive displacement binding, KOR; details: membranes from CHO cells expressing human KOR; mean (SEM), n>=3 in duplicate
T1 construct: expressed in transfected cells; cell lines provided by Professor Lawrence Toll
Procedure: (§1) Each novel compound was evaluated for binding to and stimulation of KOR, MOR, and DOR. Binding affinity (Ki) was determined by competitive displacement of [^3H]-diprenorphine, a non-selective opioid receptor antagonist with similar affinity for each of the three receptors. Potency (EC50) and efficacy, expressed as percent stimulation compared to a standard agonist at each receptor, were determined by a [^35S]-GTPγS binding assay.
(§2) Membranes prepared from transfected Chinese Hamster Ovary cells stably expressing human KOR, human MOR, or human DOR were used for all assays. Cells were grown to confluence at 37 °C in 5% CO2 in 1:1 DMEM:F12 media with 10% v/v fetal bovine serum and 5% v/v penicillin/streptomycin. Membranes were prepared by washing confluent cells three times with ice cold phosphate-buffered saline (0.9% NaCl, 0.61 mM Na2HPO4, 0.38 mM KH2PO4, pH 7.4). Cells were detached from the plates by incubation in warm harvesting buffer (20 mM HEPES, 150 mM NaCl, 0.68 mM EDTA, pH 7.4) and pelleted by centrifugation at 200× g for 3 min. The cell pellet was suspended in ice-cold 50 mM Tris-HCl buffer, pH 7.4 and homogenized with a Tissue Tearor (Biospec Products, Inc, distributed by Cole-Parmer, Vernon Hills, IL, USA) for 20 s at setting 4. The homogenate was centrifuged at 20,000× g for 20 min at 4 °C, and the pellet was rehomogenized in 50 mM Tris-HCl pH 7.4 with a Tissue Tearor for 10 s at setting 2, followed by recentrifugation. The final pellet was resuspended in 50 mM Tris-HCl pH 7.4 and frozen in aliquots at −80 °C. Protein concentration was determined via Pierce BCA protein assay kit using bovine serum albumin as the standard.
(§3) Binding affinities for all test compounds at KOR, MOR, and DOR were determined by competitive displacement of [^3H]-diprenorphine as previously reported. In a 96-well plate format, cell membranes (5–10 µg of protein) and [^3H]-diprenorphine (0.2 nM) were incubated in Tris-HCl buffer (50 mM, pH 7.4) with various concentrations of test compound at 25 °C for 1 h, allowing the mixture to reach equilibrium. Nonspecific binding was determined using the opioid antagonist naloxone (10 µM), and total binding was determined using vehicle in the absence of competitive ligand. After incubation, membranes were filtered through Whatman GF/C 1.2 micron glass fiber filters and washed with 50 mM Tris-HCl buffer. The radioactivity remaining on the filters was then quantified by liquid scintillation counting after saturation with EcoLume liquid scintillation cocktail in a Microbeta 2450 (Perkin-Elmer, Waltham, MA, USA). Binding affinity (Ki) values were calculated using the Cheng–Prusoff equation via nonlinear regression analysis using GraphPad Prism software from at least three separate binding assays performed in duplicate.

[2] = target: T2, human MOR (Homo sapiens, UniProt P35372); assay: [3H]-diprenorphine competitive displacement binding, MOR; details: membranes from CHO cells expressing human MOR; mean (SEM), n>=3 in duplicate
T2 construct: expressed in transfected cells; cell lines provided by Professor Lawrence Toll
Procedure: as §1, §2, §3

[3] = target: T3, human DOR (Homo sapiens, UniProt P41143); assay: [3H]-diprenorphine competitive displacement binding, DOR; details: membranes from CHO cells expressing human DOR; mean (SEM), n>=3 in duplicate
T3 construct: expressed in transfected cells; cell lines provided by Professor Lawrence Toll
Procedure: as §1, §2, §3

[4] = target: T1, human KOR; assay: [35S]-GTPγS binding stimulation, KOR; format: biochemical; details: mean (SEM); for EC50: CHO-human KOR membranes, * n = 2, dns = does not stimulate, average maximal stimulation <10% at up to 10 µM; for Emax: versus 10 µM standard agonist U69,593, dns = average maximal stimulation <10% at up to 10 µM
Procedure: as §1, §2
(§4) Agonist stimulation of KOR, MOR, and DOR by all test compounds was determined by [^35S]-guanosine 5′-O-[γ-thio]triphosphate ([^35S]-GTPγS) binding assays as previously reported. In a 96-well plate format, membranes from cells expressing opioid receptors as described above (10 µg of protein), [^35S]-GTPγS (0.1 nM), and guanosine diphosphate (30 µM) were incubated in GTPγS buffer (50 mM Tris-HCl, 100 mM NaCl, 5 mM MgCl2, 1 mM EDTA, pH 7.4) with various concentrations of test compound at 25 °C for 1 h. Basal stimulation was determined by incubation in the absence of any ligand. After incubation, membranes were filtered through Whatman GF/C 1.2 micron glass fiber filters and washed with GTPγS buffer with no EDTA. The radioactivity remaining on the filters was then quantified by liquid scintillation counting after saturation with EcoLume liquid scintillation cocktail in a Perkin-Elmer Microbeta 2450. Data are reported as percent stimulation compared to the effects of 10 µM standard agonists—U69,593 (KOR), DAMGO (MOR), or DPDPE (DOR). Percent stimulation and EC50 values were determined via nonlinear regression analysis using GraphPad Prism software from at least three separate assays performed in duplicate. Efficacy is expressed as percent stimulation relative to standard agonists.

[5] = target: T2, human MOR; assay: [35S]-GTPγS binding stimulation, MOR; format: biochemical; details: mean (SEM), * n = 2; for EC50: CHO-human MOR membranes, dns = does not stimulate, average maximal stimulation <10% at up to 10 µM; for Emax: versus 10 µM standard agonist DAMGO, dns = average maximal stimulation <10% at up to 10 µM
Procedure: as §1, §2, §4

[6] = target: T3, human DOR; assay: [35S]-GTPγS binding stimulation, DOR; format: biochemical; details: mean (SEM), * n = 2; for EC50 DOR: CHO-human DOR membranes, dns = does not stimulate, average maximal stimulation <10% at up to 10 µM; for % Stimulation DOR: versus 10 µM standard agonist DPDPE, dns = average maximal stimulation <10% at up to 10 µM
Procedure: as §1, §2, §4

Row | SMILES | Ki [1] [nM] | Ki [2] [nM] | Ki [3] [nM] | EC50 [4] [nM] | Emax [4] [%] | EC50 [5] [nM] | Emax [5] [%] | EC50 DOR [6] | % Stimulation DOR [6]
1 | Cc1cc(O)cc(C)c1C[C@H](N)C(=O)N1CCc2ccc(Cc3cccc(O)c3)cc2C1 [Compound 8f, (S)-2-amino-3-(4-hydroxy-2,6-dimethylphenyl)-1-(7-(3-hydroxybenzyl)-3,4-dihydroisoquinolin-2(1H)-yl)propan-1-one] | 0.8 | 0.6 | 1.4 | 148 | 83 | 18 | 81 | dns * | dns *
2 | Cc1cc(O)cc(C)c1C[C@H](N)C(=O)N1CCc2ccc(Cc3cccnc3)cc2C1 [Compound 8j, (S)-2-amino-3-(4-hydroxy-2,6-dimethylphenyl)-1-(7-(pyridin-3-ylmethyl)-3,4-dihydroisoquinolin-2(1H)-yl)propan-1-one] | 56 | 5.4 | 1.5 | 988 | 40 | 145 | 23 | dns | dns
3 | Cc1cc(O)cc(C)c1C[C@H](N)C(=O)N1CCc2ccc(CN3CCCc4ccccc43)cc2C1 [Compound 8x, (S)-2-amino-1-(7-((3,4-dihydroquinolin-1(2H)-yl)methyl)-3,4-dihydroisoquinolin-2(1H)-yl)-3-(4-hydroxy-2,6-dimethylphenyl)propan-1-one] | 7.1 | 7.2 | 6.6 | 375 | 67 | 73 | 65 | dns * | dns *
